One may read the Kd as the concentration at which binding is half-saturated. What is called stoichiometry N is the number of molecules, sites or subunits per partner or assembly.

The source of these data is publication PMC6038798, “Dissecting how modular polyketide synthase ketoreductases interact with acyl carrier protein-attached substrates” (Chemical Communications (Cambridge, England), 2017).

The target in one test is T1, mKRa (Mycobacterium ulcerans, UniProt Q6MZA4).
T1 construct: gene mlsA1; excised A1-type ketoreductase domain of module 5 of MLSA1; recombinant, purified
As to the kind of experiment: isothermal titration calorimetry. The test is classed as binding. From the text: isothermal titration calorimetry on mKRa

Another test addresses T2, mKRb (Mycobacterium ulcerans, UniProt Q6MZ72).
T2 construct: gene mlsB; excised B1-type ketoreductase domain of module 7 of MLSB; recombinant, purified
As to the kind of experiment: isothermal titration calorimetry. The class given is binding. From the text:
isothermal titration calorimetry on mKRb

Test [1] addresses mKRb, B1-type ketoreductase (KR) domain from module 7 of MLSB of the mycolactone polyketide synthase (Mycobacterium ulcerans). As to the kind of experiment: ITC; ACP species titrated against the KR domain in the presence of excess NADP+ (oxidised cofactor); three repeat experiments. A general note: Isothermal titration calorimetry measures the heat released or taken up as one component is titrated into another.

Test [2] has the same target. The test can be described thus: ITC; ACP species injected into a solution of the KR domain in the presence of excess NADPH; three repeat experiments.

For `CC(C)(CO)[C@@H](O)C(=O)NCCC(=O)NCCS` [compound 2, R-Pantetheine], the results for the equilibrium dissociation constant (Kd) at mKRa and on mKRb were 1.1 ± 0.04 µM and 1.2 ± 0.3 µM, respectively. Take `CC(C)(CO)[C@@H](O)C(=O)NCCC(=O)O` [compound 3, Pantothenate]: the Kd on mKRa is 0.7 ± 0.13 µM; on mKRb, 0.7 ± 0.1 µM. On the same counts, the results for `CC(C)(CO)[C@@H](O)C(=O)O` [compound 4, Pantoate] are more than 1000 µM and 0.6 ± 0.1 µM. `NCCS` [compound 5, Cysteamine]: the Kd on mKRa and at mKRb was more than 1000 µM throughout. `NCCC(=O)O` [compound 6, β-Alanine]: the Kd stood at 0.97 ± 0.04 µM on mKRa and 0.5 ± 0.09 µM on mKRb.

Take `CC(=O)NCCS` [compound 7, N-Acetyl cysteamine]: the Kd came out at 1.03 ± 0.02 µM at mKRa and 1.4 ± 0.3 µM on mKRb.

Take “Acetoacetyl-mACPb (1b) (domain or fragment)”: the Kd in test [1] is 0.38 µM.

For the molecule “apo mACPa, acyl carrier protein domain cognate to mKRa (module 5 of MLSA1), apo form (domain or fragment)”, in test [2], the Kd stood at 2.2 µM. For the molecule “apo mACPb, acyl carrier protein domain cognate to mKRb (module 7 of MLSB), apo form (domain or fragment)”, the dissociation constant Kd in test [2] is 2.6 µM; in test [1] it was 2.2 µM. holo mACPa (1a) (domain or fragment): in test [2], the Kd was found to be 0.63 µM. In the case of holo mACPb (1a) (domain or fragment), in test [2], the Kd came to 0.61 µM and the stoichiometry N was 1. In addition, the Kd in test [1] was determined as 0.75 µM. As for “β-Hydroxybutyryl-mACPb (1c) (domain or fragment)”, the Kd in test [2] came to 0.27 µM.
